Results published in paper PMC5218480 (PLoS ONE, 2017).

System: MV-4-11 cells
Test: Gene expression microarray analysis (Affymetrix PrimeView) and GSEA
Assay type: cell-based, human
Parameters: RFU PODN (11730768_x_at) / Fold change /veh PODN (11730768_x_at) / RFU LINC00158 (11744669_a_at) / Fold change /veh LINC00158 (11744669_a_at) / RFU DUSP10 (11751237_a_at) / Fold change /veh DUSP10 (11751237_a_at) / RFU ID3 (11757404_x_at) / Fold change /veh ID3 (11757404_x_at) / RFU PLEKHG5 (11737974_s_at) / Fold change /veh PLEKHG5 (11737974_s_at) / RFU LRRC4B (11730491_at) / Fold change /veh LRRC4B (11730491_at) / RFU GIMAP4 (11747438_a_at) / Fold change /veh GIMAP4 (11747438_a_at) / RFU KRT8 (11758183_x_at) / Fold change /veh KRT8 (11758183_x_at) / RFU CNN1 (11734310_a_at) / Fold change /veh CNN1 (11734310_a_at) / RFU VPS37D (11726825_at) / Fold change /veh VPS37D (11726825_at) / RFU C10orf10 (11716522_x_at) / Fold change /veh C10orf10 (11716522_x_at) / RFU KIR2DL2 /// KIR2DL4 /// KIR2DL5A /// KIR2DL5B /// KIR2DS1 /// KIR2DS2 /// KIR2DS3 /// KIR2DS4 /// KIR3DL3 /// KIR3DL3 /// KIR3DS1 (11738374_at) / Fold change /veh KIR2DL2 /// KIR2DL4 /// KIR2DL5A /// KIR2DL5B /// KIR2DS1 /// KIR2DS2 /// KIR2DS3 /// KIR2DS4 /// KIR3DL3 /// KIR3DL3 /// KIR3DS1 (11738374_at) / RFU C1QL1 (11718748_at) / Fold change /veh C1QL1 (11718748_at) / RFU TMPRSS4 (11747572_a_at) / Fold change /veh TMPRSS4 (11747572_a_at) / RFU HAMP (11756126_x_at) / Fold change /veh HAMP (11756126_x_at) / RFU RNFT2 (11725882_a_at) / Fold change /veh RNFT2 (11725882_a_at) / RFU NR4A2 (11747474_a_at) / Fold change /veh NR4A2 (11747474_a_at) / RFU ABCC12 (11746883_a_at) / Fold change /veh ABCC12 (11746883_a_at) / RFU TMEM136 (11760407_x_at) / Fold change /veh TMEM136 (11760407_x_at) / RFU CLDN22 /// WWC2 (11732394_at) / Fold change /veh CLDN22 /// WWC2 (11732394_at) / RFU HLA-DPB1 (11760878_x_at) / Fold change /veh HLA-DPB1 (11760878_x_at) / RFU SPINT1 (11716480_a_at) / Fold change /veh SPINT1 (11716480_a_at) / RFU GAP43 (11754022_s_at) / Fold change /veh GAP43 (11754022_s_at) / RFU A4GNT (11735810_at) / Fold change /veh A4GNT (11735810_at) / RFU PRB3 (11715151_x_at) / Fold change /veh PRB3 (11715151_x_at) / RFU TUBB4B (11761932_at) / Fold change /veh TUBB4B (11761932_at) / RFU CAPN14 (11732068_a_at) / Fold change /veh CAPN14 (11732068_a_at) / RFU TMCC2 (11721928_a_at) / Fold change /veh TMCC2 (11721928_a_at) / RFU IRGQ (11745062_a_at) / Fold change /veh IRGQ (11745062_a_at) / RFU FAM174B (11720279_a_at) / Fold change /veh FAM174B (11720279_a_at) / RFU TMPRSS4 (11748680_a_at) / Fold change /veh TMPRSS4 (11748680_a_at) / RFU FAM212B (11763350_a_at) / Fold change /veh FAM212B (11763350_a_at) / RFU PLEKHG5 (11743358_a_at) / Fold change /veh PLEKHG5 (11743358_a_at) / RFU ZSCAN30 (11745921_a_at) / Fold change /veh ZSCAN30 (11745921_a_at) / RFU CMKLR1 (11741424_a_at) / Fold change /veh CMKLR1 (11741424_a_at) / RFU LOC101060620 /// MAPK8IP1 (11723275_at) / Fold change /veh LOC101060620 /// MAPK8IP1 (11723275_at) / RFU SPTSSB (11747773_x_at) / Fold change /veh SPTSSB (11747773_x_at) / RFU PRSS12 (11739890_at) / Fold change /veh PRSS12 (11739890_at) / RFU BIN1 (11741810_x_at) / Fold change /veh BIN1 (11741810_x_at) / RFU WNT11 (11732464_a_at) / Fold change /veh WNT11 (11732464_a_at) / RFU C10orf10 (11716521_a_at) / Fold change /veh C10orf10 (11716521_a_at) / RFU C5orf56 (11738089_at) / Fold change /veh C5orf56 (11738089_at) / RFU CYB561 (11721691_x_at) / Fold change /veh CYB561 (11721691_x_at) / RFU ANKRD19P (11752326_a_at) / Fold change /veh ANKRD19P (11752326_a_at) / RFU OR2T12 /// OR2T33 /// OR2T8 (11738714_s_at) / Fold change /veh OR2T12 /// OR2T33 /// OR2T8 (11738714_s_at) / RFU VCAN (11748164_a_at) / Fold change /veh VCAN (11748164_a_at) / RFU JSRP1 (11732532_at) / Fold change /veh JSRP1 (11732532_at) / RFU KRTAP10-11 (11738290_x_at) / Fold change /veh KRTAP10-11 (11738290_x_at) / RFU MYO3A (11730013_a_at) / Fold change /veh MYO3A (11730013_a_at) / RFU EBF3 (11725865_a_at) / Fold change /veh EBF3 (11725865_a_at) / RFU CAMK2N1 (11719241_x_at) / Fold change /veh CAMK2N1 (11719241_x_at) / RFU C5orf56 (11738088_a_at) / Fold change /veh C5orf56 (11738088_a_at) / RFU OLFML3 (11715873_a_at) / Fold change /veh OLFML3 (11715873_a_at) / RFU LOC100653217 /// NTM (11731650_a_at) / Fold change /veh LOC100653217 /// NTM (11731650_a_at) / RFU MAPK11 (11762145_a_at) / Fold change /veh MAPK11 (11762145_a_at) / RFU FIZ1 (11724087_x_at) / Fold change /veh FIZ1 (11724087_x_at) / RFU OASL (11726364_x_at) / Fold change /veh OASL (11726364_x_at) / RFU SOX15 (11748057_x_at) / Fold change /veh SOX15 (11748057_x_at) / RFU CD79A (11719716_a_at) / Fold change /veh CD79A (11719716_a_at) / RFU HIST1H1D (11736915_at) / Fold change /veh HIST1H1D (11736915_at) / RFU CASKIN2 (11723855_a_at) / Fold change /veh CASKIN2 (11723855_a_at) / RFU LOC730098 (11760151_x_at) / Fold change /veh LOC730098 (11760151_x_at) / RFU OR4N2 (11742367_at) / Fold change /veh OR4N2 (11742367_at) / RFU PRRT2 (11749266_a_at) / Fold change /veh PRRT2 (11749266_a_at) / RFU SNX32 (11753110_a_at) / Fold change /veh SNX32 (11753110_a_at) / RFU CDHR5 (11726645_a_at) / Fold change /veh CDHR5 (11726645_a_at) / RFU RCAN1 (11760418_a_at) / Fold change /veh RCAN1 (11760418_a_at) / RFU FAM167A (11723789_a_at) / Fold change /veh FAM167A (11723789_a_at) / RFU FAM26E (11764081_at) / Fold change /veh FAM26E (11764081_at) / RFU ISYNA1 (11749810_s_at) / Fold change /veh ISYNA1 (11749810_s_at) / RFU ACY1 (11761880_at) / Fold change /veh ACY1 (11761880_at) / RFU 11764098_at / Fold change /veh 11764098_at / RFU SAMD14 (11745864_x_at) / Fold change /veh SAMD14 (11745864_x_at) / RFU NPB (11741838_a_at) / Fold change /veh NPB (11741838_a_at) / RFU TMPRSS6 (11731388_a_at) / Fold change /veh TMPRSS6 (11731388_a_at) / RFU KRTAP10-2 (11738614_at) / Fold change /veh KRTAP10-2 (11738614_at) / RFU ARHGAP8 /// PRR5-ARHGAP8 (11727945_x_at) / Fold change /veh ARHGAP8 /// PRR5-ARHGAP8 (11727945_x_at) / RFU KRTAP5-7 /// NADSYN1 (11734609_at) / Fold change /veh KRTAP5-7 /// NADSYN1 (11734609_at) / RFU RASL12 (11751679_a_at) / Fold change /veh RASL12 (11751679_a_at) / RFU CDKN2B (11736163_a_at) / Fold change /veh CDKN2B (11736163_a_at) / RFU PRF1 (11729649_at) / Fold change /veh PRF1 (11729649_at) / RFU, ZNF638 /// ZNF638-IT1 / Fold change vs veh, ZNF638 /// ZNF638-IT1 / RFU, PANK3 / Fold change vs veh, PANK3 / RFU, SH3YL1 / Fold change vs veh, SH3YL1 / RFU, ZEB2 / Fold change vs veh, ZEB2 / RFU, NRIP1 / Fold change vs veh, NRIP1 / RFU, PTTG1IP / Fold change vs veh, PTTG1IP / RFU, CAPN2 / Fold change vs veh, CAPN2 / RFU, MED14 / Fold change vs veh, MED14 / RFU, SNORA58 / Fold change vs veh, SNORA58 / RFU, C1orf63 / Fold change vs veh, C1orf63 / RFU, LRRFIP1 / Fold change vs veh, LRRFIP1 / RFU, NDUFAF7 / Fold change vs veh, NDUFAF7 / RFU, SLC12A2 / Fold change vs veh, SLC12A2 / RFU, IBTK / Fold change vs veh, IBTK / RFU, ESF1 / Fold change vs veh, ESF1 / Fold change vs veh, TMEM50B / RFU, TAOK1 / Fold change vs veh, TAOK1 / RFU, ACBD3 / Fold change vs veh, ACBD3 / RFU, TMA16 / Fold change vs veh, TMA16 / RFU, RWDD3 / Fold change vs veh, RWDD3 / RFU, BCAT1 / Fold change vs veh, BCAT1 / RFU, EDEM3 / Fold change vs veh, EDEM3 / RFU, TMEM33 / Fold change vs veh, TMEM33 / RFU, WDR75 / Fold change vs veh, WDR75 / RFU, AHCTF1 / Fold change vs veh, AHCTF1 / RFU, TFRC / Fold change vs veh, TFRC / RFU, ZDHHC17 / Fold change vs veh, ZDHHC17 / RFU, NOM1 / Fold change vs veh, NOM1 / RFU, ARL8B / Fold change vs veh, ARL8B / RFU, ZBTB11 / Fold change vs veh, ZBTB11 / RFU, TAMM41 / Fold change vs veh, TAMM41 / RFU, KIAA1704 /// LOC100996395 / Fold change vs veh, KIAA1704 /// LOC100996395 / RFU, ING1 / Fold change vs veh, ING1 / RFU, TRMT61B / Fold change vs veh, TRMT61B / RFU, FUBP3 / Fold change vs veh, FUBP3 / RFU, TP53 / Fold change vs veh, TP53 / RFU, TNKS2 / Fold change vs veh, TNKS2 / RFU, ZFP14 / Fold change vs veh, ZFP14 / RFU, ACTR2 / Fold change vs veh, ACTR2 / RFU, PPP3R1 / Fold change vs veh, PPP3R1 / RFU, PIK3R1 / Fold change vs veh, PIK3R1 / RFU, HNRNPA1 / Fold change vs veh, HNRNPA1 / RFU, RNF170 / Fold change vs veh, RNF170 / RFU, ZNF28 / Fold change vs veh, ZNF28 / RFU, RNGTT / Fold change vs veh, RNGTT / RFU, OGT / Fold change vs veh, OGT / RFU, BRD1 / Fold change vs veh, BRD1 / RFU, MARS / Fold change vs veh, MARS / RFU, ZNF655 / Fold change vs veh, ZNF655 / RFU, FAHD1 / Fold change vs veh, FAHD1 / RFU, BDP1 / Fold change vs veh, BDP1 / RFU, LRRCC1 / Fold change vs veh, LRRCC1 / RFU, ARID1A / Fold change vs veh, ARID1A / RFU, ZNF146 / Fold change vs veh, ZNF146 / RFU, ZNF330 / Fold change vs veh, ZNF330 / RFU, GPN3 / Fold change vs veh, GPN3 / RFU, C9orf123 / Fold change vs veh, C9orf123 / RFU, N4BP2L2 / Fold change vs veh, N4BP2L2 / RFU, ARFIP1 / Fold change vs veh, ARFIP1 / RFU, FAM179B / Fold change vs veh, FAM179B / RFU, BCL10 / Fold change vs veh, BCL10 / RFU, UHRF1BP1L / Fold change vs veh, UHRF1BP1L / RFU, BET1 / Fold change vs veh, BET1 / RFU, CNOT2 / Fold change vs veh, CNOT2 / RFU, ZNF268 / Fold change vs veh, ZNF268 / Fold change vs veh, ZNF507 / RFU, DGCR2 / Fold change vs veh, DGCR2 / RFU, WDSUB1 / Fold change vs veh, WDSUB1 / Fold change vs veh, HSP90B1 /// MIR3652 / RFU, ADSS / Fold change vs veh, ADSS / RFU, GK / Fold change vs veh, GK / RFU, ZNF148 / Fold change vs veh, ZNF148 / RFU, TAF9 / Fold change vs veh, TAF9 / RFU, SLC1A5 / Fold change vs veh, SLC1A5 / RFU, SLMO2 / Fold change vs veh, SLMO2 / RFU, ABCC4 / Fold change vs veh, ABCC4 / RFU, LOC101060439 /// RAP1B / Fold change vs veh, LOC101060439 /// RAP1B / RFU, RFX7 / Fold change vs veh, RFX7 / RFU, GTPBP10 / Fold change vs veh, GTPBP10 / RFU, CNEP1R1 / Fold change vs veh, CNEP1R1 / RFU, BIVM-ERCC5 /// ERCC5 / Fold change vs veh, BIVM-ERCC5 /// ERCC5 / RFU, ILF3 / Fold change vs veh, ILF3 / RFU 11762660_at / Fold change /veh 11762660_at / RFU VCAN (11757783_s_at) / Fold change /veh VCAN (11757783_s_at) / RFU DDX43 (11728927_at) / Fold change /veh DDX43 (11728927_at) / RFU KRT8 (11758188_x_at) / Fold change /veh KRT8 (11758188_x_at) / RFU NKD1 (11759106_at) / Fold change /veh NKD1 (11759106_at) / RFU SRD5A1 (11742802_a_at) / Fold change /veh SRD5A1 (11742802_a_at) / RFU TPSAB1 /// TPSB2 (11721975_s_at) / Fold change /veh TPSAB1 /// TPSB2 (11721975_s_at) / RFU GSTM3 (11746129_a_at) / Fold change /veh GSTM3 (11746129_a_at) / RFU IL23R (11737362_x_at) / Fold change /veh IL23R (11737362_x_at) / RFU TMEM51 (11727254_a_at) / Fold change /veh TMEM51 (11727254_a_at) / RFU PIWIL2 (11732686_x_at) / Fold change /veh PIWIL2 (11732686_x_at) / RFU ORM1 (11744905_x_at) / Fold change /veh ORM1 (11744905_x_at) / RFU CCDC152 (11743942_at) / Fold change /veh CCDC152 (11743942_at) / RFU ECM1 (11717891_a_at) / Fold change /veh ECM1 (11717891_a_at) / RFU IL23R (11748794_a_at) / Fold change /veh IL23R (11748794_a_at) / RFU TNFAIP8L3 (11732012_x_at) / Fold change /veh TNFAIP8L3 (11732012_x_at) / RFU MBOAT4 (11741988_at) / Fold change /veh MBOAT4 (11741988_at) / RFU 11764193_at / Fold change /veh 11764193_at / RFU TMEM53 (11763286_at) / Fold change /veh TMEM53 (11763286_at) / RFU MAGEB2 (11727129_at) / Fold change /veh MAGEB2 (11727129_at) / RFU TMEM200A (11744735_a_at) / Fold change /veh TMEM200A (11744735_a_at) / RFU CCDC152 (11751479_a_at) / Fold change /veh CCDC152 (11751479_a_at) / RFU FAM211A (11726209_a_at) / Fold change /veh FAM211A (11726209_a_at) / RFU RGS16 (11746705_a_at) / Fold change /veh RGS16 (11746705_a_at) / RFU VCAN (11755009_s_at) / Fold change /veh VCAN (11755009_s_at) / RFU RHOB (11743442_s_at) / Fold change /veh RHOB (11743442_s_at) / RFU RGS16 (11720943_a_at) / Fold change /veh RGS16 (11720943_a_at) / RFU RGS16 (11720944_at) / Fold change /veh RGS16 (11720944_at) / RFU, VPS4B / Fold change vs veh, VPS4B / RFU, CREB1 / Fold change vs veh, CREB1 / RFU, DNAJC13 / Fold change vs veh, DNAJC13 / RFU, GNAQ / Fold change vs veh, GNAQ / RFU, CDK5R1 / Fold change vs veh, CDK5R1 / RFU, ZRANB3 / Fold change vs veh, ZRANB3 / RFU, CUL4A / Fold change vs veh, CUL4A / RFU, CCNY / Fold change vs veh, CCNY / RFU, UFL1 / Fold change vs veh, UFL1 / RFU, COG3 / Fold change vs veh, COG3 / RFU, DIAPH2 / Fold change vs veh, DIAPH2 / RFU, SKA2 / Fold change vs veh, SKA2 / RFU, AFF3 / Fold change vs veh, AFF3 / RFU, LMF1 / Fold change vs veh, LMF1 / RFU, IPO11 / Fold change vs veh, IPO11 / RFU, DFFB / Fold change vs veh, DFFB / RFU, FOXP1 / Fold change vs veh, FOXP1 / RFU, CARD8 / Fold change vs veh, CARD8 / RFU, STRN3 / Fold change vs veh, STRN3 / RFU, ADK / Fold change vs veh, ADK / RFU, RASSF2 / Fold change vs veh, RASSF2 / RFU, WIPF1 / Fold change vs veh, WIPF1 / RFU, LARP1B / Fold change vs veh, LARP1B / RFU, RASA1 / Fold change vs veh, RASA1 / RFU, RB1 / Fold change vs veh, RB1 / RFU, PPFIA1 / Fold change vs veh, PPFIA1 / RFU, MAT2A / Fold change vs veh, MAT2A / RFU, CCT5 / Fold change vs veh, CCT5 / RFU, WDR92 / Fold change vs veh, WDR92 / RFU, CUX1 / Fold change vs veh, CUX1 / RFU, TTC7A / Fold change vs veh, TTC7A / RFU, TMEM135 / Fold change vs veh, TMEM135 / RFU, DEPTOR / Fold change vs veh, DEPTOR / RFU, CPM / Fold change vs veh, CPM / RFU, DNAJB6 / Fold change vs veh, DNAJB6 / RFU, CACNA2D3 / Fold change vs veh, CACNA2D3 / RFU, DTX4 / Fold change vs veh, DTX4 / RFU, TFCP2 / Fold change vs veh, TFCP2 / RFU, GMCL1 /// GMCL1P1 / Fold change vs veh, GMCL1 /// GMCL1P1 / RFU, AEBP2 / Fold change vs veh, AEBP2 / RFU, SNHG1 /// SNORD22 /// SNORD25 /// SNORD26 /// SNORD27 /// SNORD28 /// SNORD29 /// SNORD31 / Fold change vs veh, SNHG1 /// SNORD22 /// SNORD25 /// SNORD26 /// SNORD27 /// SNORD28 /// SNORD29 /// SNORD31 / Fold change (Aza/veh), C12orf56 (ProbeSet 11735607_a_at) / Fold change (ACY-1035/veh), C12orf56 (ProbeSet 11735607_a_at) / Fold change (Aza/veh), FGFR1OP (ProbeSet 11751329_s_at) / Fold change (ACY-1035/veh), FGFR1OP (ProbeSet 11751329_s_at) / Fold change (Aza/veh), VPS36 (ProbeSet 11739960_a_at) / Fold change (ACY-1035/veh), VPS36 (ProbeSet 11739960_a_at) / RFU SYPL1 (11715823_x_at) / Fold change /veh SYPL1 (11715823_x_at) / RFU IGFBP7 (11715501_s_at) / Fold change /veh IGFBP7 (11715501_s_at) / RFU REEP3 (11722064_at) / Fold change /veh REEP3 (11722064_at) / RFU IGLL1 (11728026_x_at) / Fold change /veh IGLL1 (11728026_x_at): dose or concentration left out as unconfirmed
Settings: MV-4-11 cells, 48 hours

Structure (SMILES): Nc1ccc(-c2cccs2)cc1NC(=O)c1ccc2c(c1)cc(C1CC1)n2CCN1CCOCC1 [ACY-1035]
- RFU OR2T12 /// OR2T33 /// OR2T8 (11738714_s_at): 6.34 RFU
